Measured values: US11352392B2, “Artificially synthesized peptide H-473 and use thereof” (CHINA WEST NORMAL UNIVERSITY, priority 2018, dated 2022)
Ends that are not written are not given here.

Tests used:
asthma in mice = experiment: Effect on asthma in mice (OVA sensitization, BALF cell count); type: in vivo, BALB/C mice; conditions: dexamethasone 1 mg/kg intramuscular, 7 d
Procedure: At day 35 of the experiment, the test samples were respectively given one hour prior to OVA atomization.
5.6.1 Asthma model: mice were injected intraperitoneally with 0.2 ml of a sensitizing solution (ovalbumin OVA 80 μg+ Adjuvant liquid aluminum 0.1 ml) twice on days 0 and 14. From day 24 after the first sensitization, 2.5% OVA was aerosolized and inhaled for 45 min once daily for 18 days.
5.6.2 Administration: the corresponding test sample was given 1 h before the OVA solution atomization challenge since day 35 of the experiment. H-473 15 μg/kg group and H-473 30 μg/kg group were injected intramuscularly, respectively. The positive control group was injected with dexamethasone 1 mg/kg intramuscularly. Normal control group and model control group were injected with saline intramuscularly.
General global observations: respiratory rate, whether there was dyspnea, cyanosis, dysphoria and convulsion.
Bronchoalveolar lavage fluid (BALF) cells were counted and classified (EOS ratio elevated or not).

MGC-803 xenograft tumors = experiment: Pharmacodynamic experiment on human gastric cancer MGC-803 xenograft tumor in nude mice; type: in vivo, BALB/c nude mice; conditions: MGC-803 xenograft nude mice; H-473 1 μg/kg or Interleukin-2 200,000 IU/kg, tail vein, once a day for 10 times
Procedure: (§1) Model control group: physiological saline, 0.1 ml/10 g, once a day for 10 times.
The cultured MGC-803 cell suspension was collected at a concentration of 1×10^7 cells/ml and inoculated subcutaneously in the right axilla of nude mice, 0.1 ml/mouse.
Diameters of the xenograft tumors in nude mice were measured with a vernier caliper. 8 days after inoculation, the animals were randomized into groups with 8 in each group when the tumors grew to 100-150 mm^3. At the same time, each group of nude mice began to be dosed. […] The anti-tumor effect of the test sample was dynamically observed by using a method of measuring tumor diameter. […]
(§2) Tumor volume (TV) was calculated according to the following formula: TV=½×a×b^2, wherein, a and b represent length and width, respectively.
(§3) Relative tumor volume (RTV) was calculated according to the measured results according to the following formula: RTV=Vt/V0, wherein, V0 is tumor volume measured when the animals are divided into cages and dosed (i.e., d0) and Vt is tumor volume at each measurement.
(§4) Evaluation indicator of anti-tumor activity: relative tumor proliferation rate T/C (%) was calculated according to the following formula:
(§5) Evaluation indicator of antitumor activity: tumor growth inhibition rate (%) was calculated according to the following formula: […]

cfpac-1 xenograft tumors = experiment: Pharmacodynamic experiment on cfpac-1 xenograft tumor in nude mice; type: in vivo, BALB/c nude mice; conditions: cfpac-1 xenograft nude mice; H-473 1 μg/kg or Interleukin-2 200,000 IU/kg, tail vein, once a day for 10 times
Procedure: as §1
The cultured cfpac-1 cell suspension was collected at a concentration of 1×10^7 cells/ml and inoculated subcutaneously in the right axilla of nude mice, 0.1 ml/mouse.
Diameters of the xenograft tumors in nude mice were measured with a vernier caliper. 17 days after inoculation, the animals were randomized into groups with 8 in each group when the tumors grew to 100-150 mm^3. At the same time, each group of nude mice began to be dosed. […] The anti-tumor effect of the test sample was dynamically observed by using a method of measuring tumor diameter. […]
as §2, §3, §4, §5

Compound | BALF ESO (asthma in mice) | BALF ESO % (asthma in mice) | BALF WBC (asthma in mice) | Body weight of animals At sacrifice (MGC-803 xenograft tumors) | Body weight of animals At sacrifice (cfpac-1 xenograft tumors)
C[C@@H]1C[C@H]2[C@@H]3CCC4=CC(=O)C=C[C@]4(C)[C@@]3(F)[C@@H](O)C[C@]2(C)[C@@]1(O)C(=O)CO [Positive control, dexamethasone] | 0.15 ± 0.05^## 10^9/L | 3.75 ± 0.83 % | 3.8 ± 0.5^## 10^9/L |  | 
RGLRGLR [H-473, RGLRGLR] |  |  |  | 22.80 ± 0.97 g | 22.91 ± 1.12 g
